According to patent US20090170813A1, “Hypophosphorous Acid Derivatives and their Therapeutical Applications” (priority 2005, published 2009):
Like-named read-outs stand apart in the source and are kept apart here. Each block holds one molecule with its values, some of them ahead of it.

Columns and labels:
mGlu4R [1] = target: T1, mGlu4R (Homo sapiens, UniProt Q14833); details: background statement; read-out: IC50 as competitive antagonist; cited from earlier work
mGlu4R [2] = target: T1, mGlu4R; details: background statement; read-out: EC50 as mGlu4R agonist; cited from earlier work
rat mGlu4 = target: T2, rat mGlu4 (Rattus norvegicus, UniProt P31423); assay: Agonist activity, [3H]phosphatidylinositol accumulation in HEK293 cells transfected with rat mGlu4 and Gqi9; type: cell-based
T2 construct: expressed in transfected cells; host or cells: HEK293
Procedure: Agonist activity of the compounds was tested on HEK293 cells transiently transfected with rat mGlu4 expressing plasmid pRKG4 and chimeric G-protein Gqi9 by electroporation, as described by Gomeza, J. et al, Mol. Pharmacol; 1996, 50, 923-930.
Cells were plated in 96-well culture plates and labeled overnight with [^3H]myoinositol. The day after, cells were washed three times with Krebs buffer, incubated for 10 min with LiCl 5 mM, and then incubated for 30 min in the absence (basal) or in the presence of the indicated compounds at 1 nM up to 1000 μM. The total amount of [^3H]phosphatidylinositol accumulated in the cells was determined after Dowex purification as previously by Goudet C, et al, Prod. Natl. Acad. Sci. USA 2004, 101, 378-383.
The response dosis curves were adjusted by using equatrier y=[(Ymax−ymin)/(1+(x/EC50)^n)]+ymin where EC50 is the concentration necessary for obtaining half of the maximal effect and n is Hill coefficient.

mGlu8 = mGlu8 (Homo sapiens, UniProt O00222); assay: Agonist activity on group III receptor mGlu8
mGlu7 = mGlu7 (Homo sapiens, UniProt Q14831); assay: Agonist activity on group III receptor mGlu7
[3] = Table 1, mean ± spread (n), read-out: EC50 mGlu4
[4] = Table 2, n in brackets, read-out: mGlu4 EC50 μM (n)

T2 sequence (P31423 33-912): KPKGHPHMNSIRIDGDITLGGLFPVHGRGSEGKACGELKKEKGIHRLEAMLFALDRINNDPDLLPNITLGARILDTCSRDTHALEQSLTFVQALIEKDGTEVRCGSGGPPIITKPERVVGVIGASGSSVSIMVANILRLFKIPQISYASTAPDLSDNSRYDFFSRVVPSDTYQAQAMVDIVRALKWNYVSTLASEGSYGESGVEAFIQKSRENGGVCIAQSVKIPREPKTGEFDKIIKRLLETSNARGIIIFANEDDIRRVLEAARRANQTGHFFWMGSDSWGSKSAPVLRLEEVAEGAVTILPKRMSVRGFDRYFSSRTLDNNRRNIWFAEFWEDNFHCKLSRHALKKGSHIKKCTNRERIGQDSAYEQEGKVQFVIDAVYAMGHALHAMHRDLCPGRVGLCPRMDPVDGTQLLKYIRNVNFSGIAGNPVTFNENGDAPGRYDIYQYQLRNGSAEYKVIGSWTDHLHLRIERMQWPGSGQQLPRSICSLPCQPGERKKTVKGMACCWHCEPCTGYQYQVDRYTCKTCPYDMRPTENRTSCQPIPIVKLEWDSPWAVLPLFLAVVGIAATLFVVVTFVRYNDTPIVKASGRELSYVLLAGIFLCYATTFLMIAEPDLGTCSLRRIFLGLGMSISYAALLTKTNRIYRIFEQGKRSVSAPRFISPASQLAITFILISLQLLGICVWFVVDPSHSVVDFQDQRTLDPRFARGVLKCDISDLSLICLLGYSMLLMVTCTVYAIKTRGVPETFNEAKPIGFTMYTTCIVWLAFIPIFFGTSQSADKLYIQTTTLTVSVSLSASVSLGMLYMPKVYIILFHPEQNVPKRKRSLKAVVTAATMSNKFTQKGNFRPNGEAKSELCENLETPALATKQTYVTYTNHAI
T1 sequence (Q14833 33-912): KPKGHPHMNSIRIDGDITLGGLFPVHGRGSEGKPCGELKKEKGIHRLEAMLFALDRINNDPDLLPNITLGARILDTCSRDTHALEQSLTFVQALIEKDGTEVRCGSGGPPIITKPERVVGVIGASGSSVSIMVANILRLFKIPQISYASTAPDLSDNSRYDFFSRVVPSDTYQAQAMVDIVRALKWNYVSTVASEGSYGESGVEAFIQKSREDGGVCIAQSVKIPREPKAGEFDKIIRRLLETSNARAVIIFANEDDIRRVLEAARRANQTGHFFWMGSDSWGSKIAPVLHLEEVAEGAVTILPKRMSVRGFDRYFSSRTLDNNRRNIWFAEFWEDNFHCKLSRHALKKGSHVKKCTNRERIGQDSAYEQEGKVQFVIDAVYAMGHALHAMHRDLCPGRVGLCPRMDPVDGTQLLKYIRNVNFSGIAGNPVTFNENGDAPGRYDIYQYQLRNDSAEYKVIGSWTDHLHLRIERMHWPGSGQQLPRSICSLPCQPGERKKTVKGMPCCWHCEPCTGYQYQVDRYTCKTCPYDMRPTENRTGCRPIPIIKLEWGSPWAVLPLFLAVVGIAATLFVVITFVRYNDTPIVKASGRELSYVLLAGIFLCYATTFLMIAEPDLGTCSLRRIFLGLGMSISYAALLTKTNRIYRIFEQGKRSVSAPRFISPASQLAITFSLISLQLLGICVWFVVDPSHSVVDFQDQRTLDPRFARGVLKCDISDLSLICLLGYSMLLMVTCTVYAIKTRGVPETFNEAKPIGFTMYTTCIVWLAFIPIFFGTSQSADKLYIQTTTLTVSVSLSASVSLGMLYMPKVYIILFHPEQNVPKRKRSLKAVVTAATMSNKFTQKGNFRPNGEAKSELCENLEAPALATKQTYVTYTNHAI
mGlu8, sequence (O00222 34-908): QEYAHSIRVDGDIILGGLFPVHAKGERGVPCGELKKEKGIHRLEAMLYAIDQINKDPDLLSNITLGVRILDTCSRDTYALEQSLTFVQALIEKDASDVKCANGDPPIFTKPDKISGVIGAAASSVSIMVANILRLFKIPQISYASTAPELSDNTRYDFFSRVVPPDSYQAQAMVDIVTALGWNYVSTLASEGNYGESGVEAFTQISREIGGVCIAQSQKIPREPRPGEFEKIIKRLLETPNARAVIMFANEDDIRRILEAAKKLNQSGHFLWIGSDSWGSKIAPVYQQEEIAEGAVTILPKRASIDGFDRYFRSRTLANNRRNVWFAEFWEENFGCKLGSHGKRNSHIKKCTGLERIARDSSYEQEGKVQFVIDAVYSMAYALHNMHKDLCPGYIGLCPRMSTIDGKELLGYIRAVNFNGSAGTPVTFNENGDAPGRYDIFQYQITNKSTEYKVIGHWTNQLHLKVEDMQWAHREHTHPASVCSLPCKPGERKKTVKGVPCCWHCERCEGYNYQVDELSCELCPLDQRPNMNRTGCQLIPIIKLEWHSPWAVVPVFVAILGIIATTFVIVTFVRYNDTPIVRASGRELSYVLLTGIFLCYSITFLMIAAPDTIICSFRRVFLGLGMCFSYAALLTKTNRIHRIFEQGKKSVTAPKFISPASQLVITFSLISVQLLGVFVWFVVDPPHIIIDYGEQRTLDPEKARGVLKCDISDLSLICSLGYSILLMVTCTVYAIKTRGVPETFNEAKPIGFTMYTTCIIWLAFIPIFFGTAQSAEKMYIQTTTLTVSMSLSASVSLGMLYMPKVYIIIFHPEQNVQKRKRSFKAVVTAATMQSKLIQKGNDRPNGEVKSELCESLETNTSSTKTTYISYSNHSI
mGlu7, sequence (Q14831 35-915): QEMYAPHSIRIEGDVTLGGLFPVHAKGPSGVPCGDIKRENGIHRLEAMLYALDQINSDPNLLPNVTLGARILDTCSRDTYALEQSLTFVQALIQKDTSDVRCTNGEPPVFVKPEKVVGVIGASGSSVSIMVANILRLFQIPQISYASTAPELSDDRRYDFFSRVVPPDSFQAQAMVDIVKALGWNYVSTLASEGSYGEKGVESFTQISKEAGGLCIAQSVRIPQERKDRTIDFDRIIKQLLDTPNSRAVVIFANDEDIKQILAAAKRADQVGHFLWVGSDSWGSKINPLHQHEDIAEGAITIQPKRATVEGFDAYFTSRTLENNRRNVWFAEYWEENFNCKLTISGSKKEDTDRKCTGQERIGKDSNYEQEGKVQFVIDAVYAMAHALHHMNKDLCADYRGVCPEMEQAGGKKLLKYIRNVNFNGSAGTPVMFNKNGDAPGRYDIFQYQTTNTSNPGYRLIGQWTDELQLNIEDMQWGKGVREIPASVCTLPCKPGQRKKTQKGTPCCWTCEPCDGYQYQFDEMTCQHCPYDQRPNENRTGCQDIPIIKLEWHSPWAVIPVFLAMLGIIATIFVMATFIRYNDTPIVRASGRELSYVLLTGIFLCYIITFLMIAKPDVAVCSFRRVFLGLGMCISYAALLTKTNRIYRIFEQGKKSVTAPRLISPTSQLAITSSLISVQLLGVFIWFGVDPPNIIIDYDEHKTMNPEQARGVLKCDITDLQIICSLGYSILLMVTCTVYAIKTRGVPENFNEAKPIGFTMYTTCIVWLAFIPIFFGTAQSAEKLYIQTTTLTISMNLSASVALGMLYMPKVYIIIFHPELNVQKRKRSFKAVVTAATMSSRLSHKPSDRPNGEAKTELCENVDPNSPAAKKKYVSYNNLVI

SMILES: CC(N)(CCP(=O)(O)O)C(=O)O (stereo not drawn) [α-methyl analogue]
IC50 (mGlu4R [1]): 100 µM

SMILES: NC(CCP(=O)(O)O)C(=O)O [L-AP4]
EC50 (mGlu4R [2]): 0.32 µM

SMILES: N[C@H](CCP(=O)(O)CCC(=O)O)C(=O)O [(3R)-PCEP, 3-amino-carboxy-propyl-2′-carboxy-ethylphosphinic acid, reference compound]
EC50 (rat mGlu4; [3]): 24.2 ± 7.6 µM
EC50 (mGlu8; read-out: EC50 mGlu8, Table 1, mean ± spread (n)): 58.2 ± 8.8 µM
EC50 (mGlu7; read-out: EC50 mGlu7, Table 1): > 1000 µM

Further lines, results first:

EC50 (rat mGlu4; [3]): 6.6 ± 2.8 µM
EC50 (rat mGlu4; [4]): 7.1 µM
EC50 (mGlu8): 24.2 ± 9 µM
EC50 (mGlu7): > 1000 µM
SMILES: NC(CCP(=O)(O)CCC(=O)O)C(=O)O (racemic) [Compound 4, 3-[((3-Amino-3-carboxy)propyl)(hydroxy)phosphinyl]propanoic Acid]

EC50 (rat mGlu4; [4]): 28.7 µM
SMILES: N[C@@H](CCP(=O)(O)CC(CC(=O)O)C(=O)O)C(=O)O (stereo partly drawn) [Compound 19, (3S)-2-[(((3-amino-3-carboxy)propyl)(hydroxy)phosphinyl)-methyl]butane-1,4-dioic Acid]
